Assay results as given in patent US7560121B1 (LTS Lohmann Therapie-Systeme AG, priority 1999, dated 2009).
Counter-ions that a name gives are not always drawn.

Assays:
[1] = Solubility of fluphenazine dihydrochloride in poly(meth)acrylate pressure-sensitive adhesives; format: physicochemical
From the text: Addition of Eudragit E100 (Röhm Pharma GmbH) was therefore provided for in all cases. This poly-(meth)acrylate has trialkylamino groups in its lateral chain and is capable of functioning as an ion-exchange resin. In this way, the chloride ions of the fluphenazine dihydrochloride are bonded to Eudragit E100 while protons are accepted simultaneously, with fluphenazine being formed as a free base in a certain equilibrium. Advantageous is an at least equimolar ratio of Eudragit E100 and fluphenazine dihydrochloride, i.e. of amounts by weight having the same equivalent weight calculated as potassium hydroxide.

[2] = in vivo; cited from earlier work
[3] = In vitro skin permeation through human epidermis (modified Franz cell, HPLC); format: in vitro ADME; conditions: 32° C., Oppanol-based matrix with Eudragit E100 and oleic acid, n=3
Description: Skin permeability was examined in vitro using full thickness cow udder skin and human epidermis, the latter having been separated from human full-thickness skin by heat separation.
The tests were carried out at 32° C. in a suitable permeation device (modified Franz cell), and fluphenazine was measured in the resultant samples using a suitable HPLC method. All indicated values are based on n=3 samples.

Row | SMILES | solubility in Durotak 387-2051 ([1]; with addition of Eudragit E100) | solubility in Durotak 387-2287 ([1]; with addition of Eudragit E100) | solubility in poly(meth)acrylate adhesive polymers or the organic solvents required for processing ([1]; without Eudragit E100, result in words) | half-life in blood plasma [2] [h] | maximum flow rate of fluphenazine base [3] [μg/h·cm^2]
1 | OCCN1CCN(CCCN2c3ccccc3Sc3ccc(C(F)(F)F)cc32)CC1 [fluphenazine dihydrochloride] | at least 15 %-wt. | at least 10 %-wt. | almost insoluble | – | –
2 | OCCN1CCN(CCCN2c3ccccc3Sc3ccc(C(F)(F)F)cc32)CC1 [fluphenazine] | – | – | – | 15 | 2.9
